Laboratory results published in article PMC2941766 (Molecular pharmaceutics, 2010).

Legend:
Format in all cases: in vitro ADME
UGT1A9 = target: T1, UGT1A9 (Homo sapiens, UniProt O60656); experiment: Glucuronidation by expressed human UGT1A9; conditions: human, 2.5 μM, pH 7.4
T1 sequence (O60656 26-530): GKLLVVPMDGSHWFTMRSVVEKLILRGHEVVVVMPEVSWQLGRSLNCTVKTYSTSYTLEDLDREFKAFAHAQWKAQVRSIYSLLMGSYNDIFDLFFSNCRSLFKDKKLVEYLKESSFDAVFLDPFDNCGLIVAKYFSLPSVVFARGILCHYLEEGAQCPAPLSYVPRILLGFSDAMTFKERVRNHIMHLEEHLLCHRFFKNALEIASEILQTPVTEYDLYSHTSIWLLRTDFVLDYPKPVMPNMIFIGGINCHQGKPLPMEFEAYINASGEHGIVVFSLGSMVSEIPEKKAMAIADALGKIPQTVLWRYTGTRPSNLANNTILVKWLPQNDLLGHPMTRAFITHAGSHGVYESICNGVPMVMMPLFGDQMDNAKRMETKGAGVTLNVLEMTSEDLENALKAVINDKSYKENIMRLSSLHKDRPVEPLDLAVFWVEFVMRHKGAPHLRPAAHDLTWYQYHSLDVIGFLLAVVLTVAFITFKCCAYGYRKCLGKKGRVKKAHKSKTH

[1] = Glucuronidation by pooled human liver microsomes; conditions: human, 2.5 μM, pH 7.4
UGT1A10 = target: T2, UGT1A10 (Homo sapiens, UniProt Q9HAW8); experiment: Glucuronidation by expressed human UGT1A10; conditions: human, 10 μM, pH 7.4
T2 sequence (Q9HAW8 26-530): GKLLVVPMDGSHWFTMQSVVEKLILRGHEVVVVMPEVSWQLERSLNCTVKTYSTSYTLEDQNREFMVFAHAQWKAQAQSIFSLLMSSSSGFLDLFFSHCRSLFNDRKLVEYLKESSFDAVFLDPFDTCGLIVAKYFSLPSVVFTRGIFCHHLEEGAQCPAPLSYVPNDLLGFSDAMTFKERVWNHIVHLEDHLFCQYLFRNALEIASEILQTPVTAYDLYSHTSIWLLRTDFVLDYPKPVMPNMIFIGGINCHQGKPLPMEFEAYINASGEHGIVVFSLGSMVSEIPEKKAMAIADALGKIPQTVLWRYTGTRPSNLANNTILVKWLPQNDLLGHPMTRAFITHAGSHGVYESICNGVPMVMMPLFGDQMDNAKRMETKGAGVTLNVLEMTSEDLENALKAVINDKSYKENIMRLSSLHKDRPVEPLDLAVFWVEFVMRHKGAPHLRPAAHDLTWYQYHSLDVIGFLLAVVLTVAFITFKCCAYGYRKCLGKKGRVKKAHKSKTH

UGT1A1 = target: T3, UGT1A1 (Homo sapiens, UniProt P22309); experiment: Glucuronidation by expressed human UGT1A1; conditions: human, pH 7.4
T3 sequence (P22309 26-533): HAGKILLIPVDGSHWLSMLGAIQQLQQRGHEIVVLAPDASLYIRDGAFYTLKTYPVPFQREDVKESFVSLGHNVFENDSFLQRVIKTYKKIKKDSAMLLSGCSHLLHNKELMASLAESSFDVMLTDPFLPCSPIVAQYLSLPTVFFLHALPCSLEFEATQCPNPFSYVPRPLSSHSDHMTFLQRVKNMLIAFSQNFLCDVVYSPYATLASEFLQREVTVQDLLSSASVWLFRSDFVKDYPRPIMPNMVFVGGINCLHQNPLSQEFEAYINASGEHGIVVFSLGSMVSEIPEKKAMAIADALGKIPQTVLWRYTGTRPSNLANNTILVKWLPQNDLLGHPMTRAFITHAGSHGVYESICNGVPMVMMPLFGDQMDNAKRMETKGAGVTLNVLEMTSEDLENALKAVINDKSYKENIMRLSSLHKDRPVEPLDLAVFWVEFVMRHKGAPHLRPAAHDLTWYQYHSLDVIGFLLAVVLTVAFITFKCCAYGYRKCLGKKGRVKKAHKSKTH

UGT1A7 = target: T4, UGT1A7 (Homo sapiens, UniProt Q9HAW7); experiment: Glucuronidation by expressed human UGT1A7; conditions: human, 2.5 μM, pH 7.4
T4 sequence (Q9HAW7 26-530): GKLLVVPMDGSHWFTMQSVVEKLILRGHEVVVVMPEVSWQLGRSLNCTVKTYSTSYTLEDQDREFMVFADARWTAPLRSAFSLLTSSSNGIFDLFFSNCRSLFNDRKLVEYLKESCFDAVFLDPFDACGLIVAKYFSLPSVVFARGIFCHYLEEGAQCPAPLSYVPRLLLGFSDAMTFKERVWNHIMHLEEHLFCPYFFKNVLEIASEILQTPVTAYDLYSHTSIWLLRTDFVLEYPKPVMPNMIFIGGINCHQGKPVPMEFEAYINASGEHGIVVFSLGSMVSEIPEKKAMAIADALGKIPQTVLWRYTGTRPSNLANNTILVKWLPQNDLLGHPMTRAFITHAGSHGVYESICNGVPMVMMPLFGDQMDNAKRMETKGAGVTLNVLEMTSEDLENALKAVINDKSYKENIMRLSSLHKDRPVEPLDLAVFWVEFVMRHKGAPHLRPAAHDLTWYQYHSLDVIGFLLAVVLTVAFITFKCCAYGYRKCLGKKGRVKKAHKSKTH

UGT2B7 = target: T5, UGT2B7 (Homo sapiens, UniProt P16662); experiment: Glucuronidation by expressed human UGT2B7; conditions: for glucuronidation rate: human, pH 7.4
T5 sequence (P16662 24-529): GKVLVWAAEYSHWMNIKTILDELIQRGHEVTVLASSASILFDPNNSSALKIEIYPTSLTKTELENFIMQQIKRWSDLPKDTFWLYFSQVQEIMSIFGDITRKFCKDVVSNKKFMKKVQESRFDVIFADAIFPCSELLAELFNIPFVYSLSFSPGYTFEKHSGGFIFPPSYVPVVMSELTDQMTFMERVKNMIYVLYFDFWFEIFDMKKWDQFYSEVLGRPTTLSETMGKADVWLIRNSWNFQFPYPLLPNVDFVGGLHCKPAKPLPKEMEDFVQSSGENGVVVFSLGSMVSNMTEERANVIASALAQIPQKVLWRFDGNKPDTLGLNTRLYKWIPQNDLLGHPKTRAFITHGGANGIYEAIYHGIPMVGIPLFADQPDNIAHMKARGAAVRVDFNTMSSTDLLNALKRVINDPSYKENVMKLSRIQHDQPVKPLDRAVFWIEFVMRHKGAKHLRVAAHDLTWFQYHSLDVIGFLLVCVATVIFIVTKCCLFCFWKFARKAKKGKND

[2] = Glucuronidation by pooled human intestinal microsomes; conditions: human, 2.5 μM, pH 7.4
UGT1A8 = target: T6, UGT1A8 (Homo sapiens, UniProt Q9HAW9); experiment: Glucuronidation by expressed human UGT1A8; conditions: human, 2.5 μM, pH 7.4
T6 sequence (Q9HAW9 26-530): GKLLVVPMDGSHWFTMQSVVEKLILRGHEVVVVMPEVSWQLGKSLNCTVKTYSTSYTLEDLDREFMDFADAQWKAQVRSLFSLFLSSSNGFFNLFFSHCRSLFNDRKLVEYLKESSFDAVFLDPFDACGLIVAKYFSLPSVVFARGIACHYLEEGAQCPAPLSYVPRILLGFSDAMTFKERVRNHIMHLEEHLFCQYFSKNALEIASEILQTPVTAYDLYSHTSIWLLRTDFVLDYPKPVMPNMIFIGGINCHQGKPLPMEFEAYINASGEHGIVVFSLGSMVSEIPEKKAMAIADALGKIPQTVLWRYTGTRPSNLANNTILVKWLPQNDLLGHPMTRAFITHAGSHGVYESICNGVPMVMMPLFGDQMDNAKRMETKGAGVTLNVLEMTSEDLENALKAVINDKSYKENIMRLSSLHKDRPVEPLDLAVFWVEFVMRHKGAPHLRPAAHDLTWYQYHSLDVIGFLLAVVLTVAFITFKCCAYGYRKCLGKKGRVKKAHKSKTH

## O=c1cc(-c2ccccc2)oc2cccc(O)c12 [5-HF, 5-hydroxyflavone]
UGT1A9
  glucuronidation rate: 0.29±0.01 nmol per min per mg of protein
[1]
  glucuronidation rate: 0.00±0.00 nmol per min per mg of protein
UGT1A10
  glucuronidation rate: 0.12±0.01 nmol per min per mg of protein
UGT1A1; 2.5 μM
  glucuronidation rate: 0.28±0.00 nmol per min per mg of protein
UGT1A1; 10 μM
  glucuronidation rate: 0.28±0.01 nmol per min per mg of protein
UGT1A1; 35 μM
  glucuronidation rate: 0.308±0.02 nmol per min per mg of protein
UGT1A7
  glucuronidation rate: 0 nmol per min per mg of protein
UGT2B7
  substrate of UGT2B7: substrates
UGT2B7; 2.5 μM
  glucuronidation rate: 0.20±0.01 nmol per min per mg of protein
UGT2B7; 10 μM
  glucuronidation rate: 0.40±0.02 nmol per min per mg of protein
UGT2B7; 35 μM
  glucuronidation rate: 0.11±0.00 nmol per min per mg of protein
[2]
  glucuronidation rate: 0.49±0.06 nmol per min per mg of protein
UGT1A8
  glucuronidation rate: 0.28±0.04 nmol per min per mg of protein
